These results are taken from ChEMBL document CHEMBL4402605, “A Chemical Switch for Transforming a Purine Agonist for Toll-like Receptor 7 to a Clinically Relevant Antagonist” (J Med Chem, 2020).

The subject of series [1] is Mus musculus. As to the kind of experiment: Protection against imiquimod-induced C57BL/6 mouse model of psoriasis assessed as suppression of hyperkeratosis at 15 mg/kg, po administered via gavage treated 1 day prior to imiquimod application and subsequent daily dosing for 7 consecutive days and measured post-last dose by H and E staining based histopathological analysis. The series is classed as functional.

Series [2] deals with Mus musculus. As to the kind of experiment: Protection against imiquimod-induced C57BL/6 mouse model of psoriasis assessed as reduction in MX2 mRNA expression at 15 mg/kg, po administered via gavage treated 1 day prior to imiquimod application and subsequent daily dosing for 7 consecutive days and measured post-last dose by SYBR green dye based qPCR analysis. Format: functional, organism-based. Background: In qPCR the cycle at which signal appears reflects the starting amount.

Another series can be described thus: in vitro. Particulars: mouse, plasma.
Series [3] deals with Mus musculus. Nature of the series: Protection against imiquimod-induced C57BL/6 mouse model of psoriasis assessed as suppression of papillomatosis at 15 mg/kg, po administered via gavage treated 1 day prior to imiquimod application and subsequent daily dosing for 7 consecutive days and measured post-last dose by H and E staining based histopathological analysis. Format: functional.

Series [4] can be described thus: Toxicity in C57BL/6 mouse assessed as physiological abnormalities at 15 mg/kg, po administered once daily via gavage for 7 consecutive days and measured post-last dose by H and E staining based histomorphological analysis. Format: organism-based. To be noted: in vivo.
A short description of series [5]: Half life in human liver microsomes at 100 uM by LC-MS/MS analysis. A general note: Liver microsomes are a subcellular fraction often used to study metabolism.
Series [6] addresses T1, Toll-like receptor 7 (Homo sapiens) (UniProt Q9NYK1).
T1 sequence (whole entry): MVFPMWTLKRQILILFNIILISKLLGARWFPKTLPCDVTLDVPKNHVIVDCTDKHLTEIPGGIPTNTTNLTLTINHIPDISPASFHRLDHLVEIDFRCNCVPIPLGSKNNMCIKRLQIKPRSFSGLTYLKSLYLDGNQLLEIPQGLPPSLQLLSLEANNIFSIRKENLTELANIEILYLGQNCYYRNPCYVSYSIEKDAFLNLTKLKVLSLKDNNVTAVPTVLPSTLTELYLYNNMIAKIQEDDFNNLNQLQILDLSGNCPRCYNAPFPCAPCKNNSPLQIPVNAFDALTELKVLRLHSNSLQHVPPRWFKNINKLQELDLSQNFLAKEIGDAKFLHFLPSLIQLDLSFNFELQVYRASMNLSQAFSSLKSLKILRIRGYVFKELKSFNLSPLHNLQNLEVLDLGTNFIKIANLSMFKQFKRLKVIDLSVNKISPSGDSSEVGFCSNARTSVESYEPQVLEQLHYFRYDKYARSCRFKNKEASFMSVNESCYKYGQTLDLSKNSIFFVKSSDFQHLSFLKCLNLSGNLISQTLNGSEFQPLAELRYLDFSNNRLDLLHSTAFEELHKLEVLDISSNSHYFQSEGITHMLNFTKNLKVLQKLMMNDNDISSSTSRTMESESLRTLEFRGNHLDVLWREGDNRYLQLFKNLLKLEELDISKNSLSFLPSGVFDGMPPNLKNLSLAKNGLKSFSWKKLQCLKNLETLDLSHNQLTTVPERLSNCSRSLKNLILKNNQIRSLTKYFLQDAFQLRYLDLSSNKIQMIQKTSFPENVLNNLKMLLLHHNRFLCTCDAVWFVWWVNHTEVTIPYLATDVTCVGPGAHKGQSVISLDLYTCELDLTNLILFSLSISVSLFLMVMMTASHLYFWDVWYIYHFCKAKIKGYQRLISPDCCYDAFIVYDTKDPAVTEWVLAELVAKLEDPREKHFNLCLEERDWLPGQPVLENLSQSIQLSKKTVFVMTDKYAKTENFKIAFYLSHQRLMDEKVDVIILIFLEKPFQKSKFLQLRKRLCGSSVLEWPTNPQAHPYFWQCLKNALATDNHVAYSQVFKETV
Nature of the series: Antagonist activity at TLR7 in human PBMC assessed as inhibition of gardiquimod-induced TNFalpha production at 5 uM preincubated for 1 hr followed by gardiquimod stimulation and measured after overnight incubation by ELISA.

The next series deals with HEK293. As to the kind of experiment: Cytotoxicity against HEK293 cells assessed as reduction in cell viability up to 100 uM measured after overnight incubation by propidium iodide staining based flow cytometry. Particulars: human. For orientation: Flow cytometry measures light scatter and fluorescence of single cells or particles in a stream.
Series [7] is described as follows: Toxicity in C57BL/6 mouse assessed as change in lung alveolar architecture at 15 mg/kg, po administered once daily via gavage for 7 consecutive days and measured post-last dose by H and E staining based histomorphological analysis. Format: organism-based. To be noted: in vivo.
For another series, the target named is T2, Toll-like receptor 7 (Homo sapiens, UniProt Q9NYK1).
T2 sequence (Q9NYK1 whole entry): T1 sequence (whole entry)

Series [8] is described as follows: Toxicity in C57BL/6 mouse assessed as inflammation of kidney at 15 mg/kg, po administered once daily via gavage for 7 consecutive days and measured post-last dose by H and E staining based histomorphological analysis. Format: organism-based. To be noted: in vivo.
The nature of series [9]: Clearance in human liver microsomes at 100 uM by LC-MS/MS analysis relative to hepatic blood flow.
A short description of series [10]: Toxicity in C57BL/6 mouse assessed as change in liver parenchymal architecture at 15 mg/kg, po administered once daily via gavage for 7 consecutive days and measured post-last dose by H and E staining based histomorphological analysis. Particulars: in vivo. The series is classed as organism-based.

Calls of active or inactive are those of the source. The rule behind the calls is not given here.

Description for in vitro: Stability of the compound in mouse plasma assessed as parent compound remaining at 25 uM measured after 2 hrs by LC-MS/MS analysis

Usually fraction remaining stands for the share of the starting amount still present when the sample was taken. A higher fraction remaining goes with less turnover. By half-life is commonly meant how long it takes for the measured level to halve. Low readings indicate rapid decline, high ones slow decline. One may read the IC50 as the concentration needed to halve the response being measured. Low readings indicate inhibition by little substance, high ones a need for much substance. Regarding `CCN1CCN(CCCn2cnc3c(N4CCN(CC)CC4)ncnc32)CC1`, the Activity is listed as 100% with Mus musculus [1]; 100% in the series with Mus musculus [3]; “Non-Toxic” in series [4]; “Non-Toxic” in the series on HEK293; “Non-Toxic” in [7]; “Non-Toxic” in series [8]. Also, the Activity result in series [10] is “Non-Toxic”. In addition, the result in the series on Mus musculus [2] was Active. The molecule also registered an amount remaining at 2 h, 25 µM in the series “in vitro” of 99.2%. Besides, the half-life at 100 µM in series [5] worked out at 1.5 h. In addition, in [6], the inhibition entry was “Active”. The IC50 on Toll-like receptor 7 was 4.7 µM. Further, in [9], the hepatic extraction ratio at 100 µM came to 0.265.
